Values quoted from earlier work in patent publication US20110301202A1, “SPLA2 INHIBITOR CONJUGATE COMPOUNDS AND METHODS OF USE” (priority 2010, published 2011).

Columns and labels:
[1] = following administration
[2] = once- or twice-daily, stable CVD population, also diabetic and high baseline LDL-C subpopulations

## CCc1c(C(=O)C(N)=O)c2c(OCC(=O)OC)cccc2n1Cc1ccccc1 [A-002, [[3-(2-Amino-1,2-dioxoethyl)-2-ethyl-1-(phenylmethyl)-1H-indol-4-yl]oxy]acetic acid methyl ester]
humans
  lipid levels: decreases
[2]
  LDL-C: decreases
  inflammatory marker levels: decreases
  small LDL-C particle levels: decreases
  total LDL-C particle levels: decreases
  total cholesterol: decreases
[1]
  absorption and hydrolysis of prodrug to A-001: rapidly absorbed and hydrolyzed to A-001
